Measured values taken from paper PMC9775371, “Structure-Based Virtual Screening and Functional Validation of Potential Hit Molecules Targeting the SARS-CoV-2 Main Protease” (Biomolecules, 2022).

Tests used:
[1] = biological target: T1, SARS-CoV-2 M^pro (main protease, 3CL^pro) (Severe acute respiratory syndrome coronavirus 2, UniProt P0DTD1); experiment: BRET-based sensor proteolytic cleavage assay; assay type: biochemical; conditions: 2 μM purified M^pro preincubated with compound 1 h at 37 °C; TBS, 1 M sodium citrate, 1 mM EDTA, 2 mM DTT; mNG-NLuc sensor substrate in HEK 293T lysate; read at 30 min
T1 construct: gene rep

[2] = biological target: T1, SARS-CoV-2 M^pro (main protease, 3CL^pro); experiment: BRET-based sensor proteolytic cleavage assay; assay type: biochemical; conditions: read-out: Determined EC50
From the text: BRET-based sensor proteolytic cleavage assay on SARS-CoV-2 M^pro (main protease, 3CL^pro)

Q: `CCCc1nc2c(C)cc(-c3nc4ccccc4n3C)cc2n1Cc1ccc(-c2ccccc2C(=O)O)cc1` [TM, Telmisartan] was tested. Which EC50 not determined [1] did it give?
A: Its EC50 not determined is “Telmisartan completely failed to inhibit M^pro”.

Q: How did the EC50 [2] turn out when `CCCCc1nc(Cl)c(CO)n1Cc1ccc(-c2ccccc2-c2nn[nH]n2)cc1` [LT, Losartan] was run?
A: Its EC50 is 260 ± 88.6 µM.
